Test results reported in patent US20260085280A1, “ADAPTATION AND PROCESS OPTIMIZATION OF MICROORGANISMS FOR GROWTH IN HEMICELLULOSIC DERIVED CARBOHYDRATES” (MARA RENEWABLES CORPORATION, priority 2018, published 2026).

Key:
Gxs1 7-7 = assay: xylose depletion flask assay, medium spiked with increasing concentrations of xylitol; type: cell-based, Thraustochytrium species (ONC-T18); settings: 20 g/L xylose and 8 g/L glucose; for Biomass / Xylose used / Xylose used (%): after 144 hours
Protocol: The impact of xylitol concentration on glucose and xylose consumption was determined using 7-7, Gxs1 7-7, and 51-7 strains. […] In xylose depletion flask assays, Gxs1 7-7 was used with medium containing 20 g/L xylose and 8 g/L glucose and spiked with increasing concentrations of xylitol as shown in Table 4. The values in Table 4 are the total amount of biomass produced and xylose used after 144 hours. The glucose used amounts are shown at 48 hours.

[1] = system: 7-7, Gxs1 7-7, and 51-7 strains; assay: impact of xylitol concentration on glucose and xylose consumption; type: cell-based, Thraustochytrium species (ONC-T18); settings: FIGS. 2A-2D and Table 4
Protocol: The impact of xylitol concentration on glucose and xylose consumption was determined using 7-7, Gxs1 7-7, and 51-7 strains.

OC[C@@H](O)[C@H](O)[C@@H](O)CO [Xylitol, xylitol]
Glucose used (%) @48 hr (Gxs1 7-7; 1 g L^−1 xylitol): 99.9% | Glucose used (g) @48 hr (Gxs1 7-7; 1 g L^−1 xylitol): 9.04 g | Biomass (Gxs1 7-7; 1 g L^−1 xylitol): 7.225 g/L | Xylose used (Gxs1 7-7; 1 g L^−1 xylitol): 11.03 g | Xylose used (%) (Gxs1 7-7; 1 g L^−1 xylitol): 56.2% | Glucose used (%) @48 hr (Gxs1 7-7; 5 g L^−1 xylitol): 43.7% | Glucose used (g) @48 hr (Gxs1 7-7; 5 g L^−1 xylitol): 3.99 g | Biomass (Gxs1 7-7; 5 g L^−1 xylitol): 6.683 g/L | Xylose used (Gxs1 7-7; 5 g L^−1 xylitol): 5.06 g | Xylose used (%) (Gxs1 7-7; 5 g L^−1 xylitol): 25.5% | Glucose used (%) @48 hr (Gxs1 7-7; 10 g L^−1 xylitol): 18.6% | Glucose used (g) @48 hr (Gxs1 7-7; 10 g L^−1 xylitol): 1.66 g | Biomass (Gxs1 7-7; 10 g L^−1 xylitol): 6.425 g/L | Xylose used (Gxs1 7-7; 10 g L^−1 xylitol): 4.24 g | Xylose used (%) (Gxs1 7-7; 10 g L^−1 xylitol): 22.0% | Glucose used (%) @48 hr (Gxs1 7-7; 15 g L^−1 xylitol): 12.8% | Glucose used (g) @48 hr (Gxs1 7-7; 15 g L^−1 xylitol): 1.13 g | Biomass (Gxs1 7-7; 15 g L^−1 xylitol): 6.592 g/L | Xylose used (Gxs1 7-7; 15 g L^−1 xylitol): 3.67 g | Xylose used (%) (Gxs1 7-7; 15 g L^−1 xylitol): 19.3% | xylitol concentration to be kept in order to avoid growth inhibition [1]: lower than 1 g/L
